Test system: hyaluronic acid synthase (HAS2)
Details: β-alanine 10 mM added twice, 24 h apart; total 48 h; relative to β-actin (ΔΔCt); FIG. 1

## NCCC(=O)O [β-alanine]
  mRNA of hyaluronic acid synthase in dermal fibroblasts: increased

From US20240180805A1, “COMPOSITION FOR INHIBITING WRINKLE” (YUKI GOSEI KOGYO CO., LTD., priority 2022, published 2024)
